Earlier results in patent US20260216277A1, “TOPICAL COMPOSITIONS AND METHODS FOR TREATING ALOPECIA” (priority 2023, published 2026).

Tested on: radiation-induced alopecia
Details: whole brain radiotherapy

CC1(C)CC(O)CC(C)(C)N1[O] [Tempol, 4-hydroxy-2,2,6,6-tetramethylpiperidine-1-oxyl]
Safety and tolerability of topical application to the scalp before radiation: relatively safe and well tolerated
